Experiment [1] concerns the target T1, Alpha-2A adrenergic receptor (Homo sapiens, UniProt P08913).
T1 sequence (P08913 whole entry): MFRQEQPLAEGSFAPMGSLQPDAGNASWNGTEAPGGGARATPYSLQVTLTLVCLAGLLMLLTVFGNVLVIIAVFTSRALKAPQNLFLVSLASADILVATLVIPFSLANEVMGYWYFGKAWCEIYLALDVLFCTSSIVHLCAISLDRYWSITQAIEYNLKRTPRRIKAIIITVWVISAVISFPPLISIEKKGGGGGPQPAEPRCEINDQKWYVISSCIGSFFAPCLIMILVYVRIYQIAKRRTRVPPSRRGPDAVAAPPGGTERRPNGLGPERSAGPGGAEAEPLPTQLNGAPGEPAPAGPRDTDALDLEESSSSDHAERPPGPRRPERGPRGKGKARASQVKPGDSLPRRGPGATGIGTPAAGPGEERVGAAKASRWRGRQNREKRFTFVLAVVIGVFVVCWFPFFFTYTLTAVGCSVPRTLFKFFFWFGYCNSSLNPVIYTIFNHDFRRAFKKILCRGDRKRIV

The target of experiment [2] is T2, Muscarinic acetylcholine receptor M2 (Homo sapiens, UniProt P08172).
T2 sequence (P08172 whole entry): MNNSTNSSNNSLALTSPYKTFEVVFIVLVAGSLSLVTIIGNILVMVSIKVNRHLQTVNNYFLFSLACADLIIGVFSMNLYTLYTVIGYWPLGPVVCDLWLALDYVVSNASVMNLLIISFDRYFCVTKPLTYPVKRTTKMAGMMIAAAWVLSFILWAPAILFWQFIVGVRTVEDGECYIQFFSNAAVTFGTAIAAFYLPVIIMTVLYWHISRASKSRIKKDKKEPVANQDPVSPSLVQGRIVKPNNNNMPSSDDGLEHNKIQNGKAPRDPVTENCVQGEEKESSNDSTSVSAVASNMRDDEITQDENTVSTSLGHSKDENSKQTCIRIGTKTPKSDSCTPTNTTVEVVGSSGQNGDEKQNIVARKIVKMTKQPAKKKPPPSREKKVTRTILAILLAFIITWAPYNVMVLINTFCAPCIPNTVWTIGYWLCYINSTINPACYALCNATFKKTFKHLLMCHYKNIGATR

In experiment [3] the target is cGMP-inhibited 3',5'-cyclic phosphodiesterase 3A (Homo sapiens, UniProt Q14432). It counts as functional.
Experiment [4] concerns the target 3',5'-cyclic-AMP phosphodiesterase 4A (Homo sapiens, UniProt P27815). It counts as functional.
Experiment [5] has as its target T3, Prostaglandin G/H synthase 1 (Homo sapiens, UniProt P23219). It counts as functional.
Experiment [6] concerns the target T3, Prostaglandin G/H synthase 1. It counts as functional. The source holds these as a separate data set.
Experiment [7] deals with Sodium-dependent noradrenaline transporter (Homo sapiens, UniProt P23975).
In the next experiment the target is T4, Thromboxane A2 receptor (Homo sapiens, UniProt P21731).
T4 sequence (P21731 whole entry): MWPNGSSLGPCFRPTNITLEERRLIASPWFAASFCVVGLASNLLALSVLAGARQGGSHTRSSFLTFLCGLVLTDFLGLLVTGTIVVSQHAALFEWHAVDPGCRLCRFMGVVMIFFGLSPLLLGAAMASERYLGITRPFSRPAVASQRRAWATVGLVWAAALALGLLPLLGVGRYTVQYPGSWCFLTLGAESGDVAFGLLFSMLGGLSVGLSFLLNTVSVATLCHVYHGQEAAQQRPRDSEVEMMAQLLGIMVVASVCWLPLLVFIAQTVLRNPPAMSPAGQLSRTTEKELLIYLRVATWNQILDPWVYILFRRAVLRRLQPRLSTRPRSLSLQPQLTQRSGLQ
It counts as functional, cell-based.
Note: assay procedure not described here.

cGMP-inhibited 3',5'-cyclic phosphodiesterase 3A, sequence (Q14432 whole entry): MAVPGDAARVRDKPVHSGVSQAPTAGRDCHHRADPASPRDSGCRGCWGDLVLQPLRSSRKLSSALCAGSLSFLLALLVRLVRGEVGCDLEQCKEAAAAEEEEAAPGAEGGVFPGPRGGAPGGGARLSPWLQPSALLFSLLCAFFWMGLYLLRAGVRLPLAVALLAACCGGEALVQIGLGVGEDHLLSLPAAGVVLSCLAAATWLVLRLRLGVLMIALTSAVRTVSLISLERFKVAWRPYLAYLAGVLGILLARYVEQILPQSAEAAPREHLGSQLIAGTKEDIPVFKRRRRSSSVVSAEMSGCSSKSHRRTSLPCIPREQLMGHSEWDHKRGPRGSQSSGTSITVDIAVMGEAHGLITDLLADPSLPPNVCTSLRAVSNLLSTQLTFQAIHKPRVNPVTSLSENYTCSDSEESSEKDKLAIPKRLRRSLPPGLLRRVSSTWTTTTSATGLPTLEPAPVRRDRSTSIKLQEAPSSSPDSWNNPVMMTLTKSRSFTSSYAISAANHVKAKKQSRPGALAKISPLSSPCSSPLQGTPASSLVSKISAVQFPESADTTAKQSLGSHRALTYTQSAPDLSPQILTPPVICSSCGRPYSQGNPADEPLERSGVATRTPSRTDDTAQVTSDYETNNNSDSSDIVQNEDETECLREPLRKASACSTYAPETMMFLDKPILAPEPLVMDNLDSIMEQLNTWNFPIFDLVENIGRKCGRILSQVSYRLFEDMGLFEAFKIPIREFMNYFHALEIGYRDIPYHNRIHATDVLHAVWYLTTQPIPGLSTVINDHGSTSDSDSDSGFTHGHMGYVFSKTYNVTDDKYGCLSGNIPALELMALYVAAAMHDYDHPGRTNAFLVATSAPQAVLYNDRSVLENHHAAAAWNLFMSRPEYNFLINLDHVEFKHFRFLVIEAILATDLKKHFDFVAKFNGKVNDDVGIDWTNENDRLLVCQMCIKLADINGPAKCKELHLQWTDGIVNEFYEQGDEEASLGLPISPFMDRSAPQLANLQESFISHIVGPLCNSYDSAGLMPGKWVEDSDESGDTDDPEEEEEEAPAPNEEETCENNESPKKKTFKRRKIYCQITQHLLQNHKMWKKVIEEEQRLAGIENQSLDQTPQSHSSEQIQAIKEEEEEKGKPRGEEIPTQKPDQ
3',5'-cyclic-AMP phosphodiesterase 4A, sequence (P27815 whole entry): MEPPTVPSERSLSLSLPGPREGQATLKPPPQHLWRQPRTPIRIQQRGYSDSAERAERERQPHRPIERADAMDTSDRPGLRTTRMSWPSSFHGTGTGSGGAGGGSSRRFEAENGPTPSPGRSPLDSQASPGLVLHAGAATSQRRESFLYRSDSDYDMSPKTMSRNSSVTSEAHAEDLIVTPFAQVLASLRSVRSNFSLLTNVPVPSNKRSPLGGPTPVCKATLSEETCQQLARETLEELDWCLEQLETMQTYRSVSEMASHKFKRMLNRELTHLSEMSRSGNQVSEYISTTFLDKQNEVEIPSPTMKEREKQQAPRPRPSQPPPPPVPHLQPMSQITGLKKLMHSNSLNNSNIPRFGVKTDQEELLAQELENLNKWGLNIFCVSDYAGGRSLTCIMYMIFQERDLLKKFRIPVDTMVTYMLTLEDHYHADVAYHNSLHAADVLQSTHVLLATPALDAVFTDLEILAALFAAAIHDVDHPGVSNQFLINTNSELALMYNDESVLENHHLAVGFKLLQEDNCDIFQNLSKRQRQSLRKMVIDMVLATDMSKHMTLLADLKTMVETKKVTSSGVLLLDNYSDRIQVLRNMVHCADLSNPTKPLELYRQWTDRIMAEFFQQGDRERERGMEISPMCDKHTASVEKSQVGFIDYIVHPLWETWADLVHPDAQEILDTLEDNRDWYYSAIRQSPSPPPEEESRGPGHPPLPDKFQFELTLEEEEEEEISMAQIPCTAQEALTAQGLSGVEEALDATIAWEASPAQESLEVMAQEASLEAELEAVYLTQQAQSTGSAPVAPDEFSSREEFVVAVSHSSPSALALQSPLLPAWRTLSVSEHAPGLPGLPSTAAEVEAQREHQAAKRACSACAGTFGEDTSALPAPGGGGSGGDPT
Sodium-dependent noradrenaline transporter, sequence (P23975 whole entry): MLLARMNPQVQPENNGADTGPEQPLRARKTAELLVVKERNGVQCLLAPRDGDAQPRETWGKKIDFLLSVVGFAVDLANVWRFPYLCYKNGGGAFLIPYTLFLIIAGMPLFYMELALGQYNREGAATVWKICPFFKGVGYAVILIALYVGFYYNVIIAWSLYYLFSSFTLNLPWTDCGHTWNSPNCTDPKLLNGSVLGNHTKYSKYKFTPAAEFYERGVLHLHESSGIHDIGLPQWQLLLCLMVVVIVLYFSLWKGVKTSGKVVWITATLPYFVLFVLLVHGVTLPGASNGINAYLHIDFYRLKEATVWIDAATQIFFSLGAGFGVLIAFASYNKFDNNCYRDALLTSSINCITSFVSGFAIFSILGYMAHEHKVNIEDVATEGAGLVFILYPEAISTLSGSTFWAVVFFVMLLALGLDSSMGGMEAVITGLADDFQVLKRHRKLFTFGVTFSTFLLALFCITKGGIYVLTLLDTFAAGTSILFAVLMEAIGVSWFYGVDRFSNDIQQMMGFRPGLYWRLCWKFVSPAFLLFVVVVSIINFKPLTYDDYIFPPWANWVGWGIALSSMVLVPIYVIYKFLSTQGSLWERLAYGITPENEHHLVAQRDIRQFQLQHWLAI
T3 sequence (P23219 whole entry): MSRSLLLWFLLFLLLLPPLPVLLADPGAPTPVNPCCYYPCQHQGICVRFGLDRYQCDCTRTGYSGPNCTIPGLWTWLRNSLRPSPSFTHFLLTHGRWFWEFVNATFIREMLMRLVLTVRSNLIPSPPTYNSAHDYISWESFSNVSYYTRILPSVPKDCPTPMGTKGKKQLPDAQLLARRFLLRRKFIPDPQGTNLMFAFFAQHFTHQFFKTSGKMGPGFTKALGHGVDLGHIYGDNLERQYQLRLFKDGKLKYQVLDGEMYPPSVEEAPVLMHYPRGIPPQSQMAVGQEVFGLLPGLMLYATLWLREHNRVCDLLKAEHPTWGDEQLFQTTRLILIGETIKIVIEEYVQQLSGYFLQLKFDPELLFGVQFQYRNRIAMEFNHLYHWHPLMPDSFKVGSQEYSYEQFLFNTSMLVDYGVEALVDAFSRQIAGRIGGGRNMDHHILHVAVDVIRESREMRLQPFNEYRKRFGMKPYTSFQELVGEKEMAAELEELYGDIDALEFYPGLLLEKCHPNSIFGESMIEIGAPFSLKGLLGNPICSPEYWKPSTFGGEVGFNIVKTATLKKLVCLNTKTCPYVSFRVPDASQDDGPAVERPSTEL

As for `CS(=O)(=O)Nc1cc2occ(NC=O)c(=O)c2cc1Oc1ccccc1` [IGURATIMOD], the half-maximal activity concentration (AC50) in experiment [1] was above 30 µM; in experiment [2] it was above 30 µM; in experiment [3] it was above 30 µM; in experiment [4] it was 1.75 µM; in experiment [5] it was 4.51 µM; in experiment [6], 4.33 µM. The AC50 (in experiment [7]; on Thromboxane A2 receptor) was above 30 µM throughout.

Consider `NS(=O)(=O)c1cc2c(cc1Cl)NC(CC1CCCC1)NS2(=O)=O` (stereo unspecified) [CYCLOPENTHIAZIDE], for which the concentration at half-maximal activity (AC50) in experiment [1], in experiment [2], in experiment [3], in experiment [4], in experiment [5] and in experiment [6] was above 30 µM throughout. For the same compound, the AC50 (in experiment [7]; on Thromboxane A2 receptor) was above 30 µM in each case.

Turning to `CCCCN(CCCC)CCCOC(=O)c1ccc(N)cc1` [BUTACAINE], the AC50 in experiment [1] is above 30 µM; in experiment [2], 16.3 µM; in experiment [3], above 30 µM; in experiment [4], above 30 µM; in experiment [5], above 30 µM; in experiment [6], above 30 µM. For the same compound, the half-maximal activity concentration (AC50) (in experiment [7]; at Thromboxane A2 receptor) was above 30 µM each time.

On to `C1N2CN3CN1CN(C2)C3` [METHENAMINE], for which the AC50 in experiment [1], in experiment [2], in experiment [3], in experiment [4], in experiment [5] and in experiment [6] was above 30 µM in each case. The concentration at half-maximal activity (AC50) (in experiment [7]; on Thromboxane A2 receptor) was above 30 µM in each case.

`C[C@@H]1C[C@H]2[C@@H]3CCC4=CC(=O)C=C[C@]4(C)[C@@]3(F)[C@@H](O)C[C@]2(C)[C@H]1C(=O)CO` [DESOXIMETASONE]: the concentration at half-maximal activity (AC50) in experiment [1], in experiment [2], in experiment [3], in experiment [4], in experiment [5] and in experiment [6] was above 30 µM in each case. Also, the AC50 (in experiment [7]; at Thromboxane A2 receptor) was above 30 µM throughout.

On to `O=C1CCC(N2C(=O)c3ccccc3C2=O)C(=O)N1` (stereo unspecified) [THALIDOMIDE], for which the half-maximal activity concentration (AC50) was above 30 µM in experiment [1]; 14.8 µM in experiment [2]; above 30 µM in experiment [3]; above 30 µM in experiment [4]; above 30 µM in experiment [5]; above 30 µM in experiment [6]. Further, the AC50 (in experiment [7]; at Thromboxane A2 receptor) was above 30 µM in each case.

As for `CO[C@@]12[C@H](COC(N)=O)C3=C(C(=O)C(C)=C(N)C3=O)N1C[C@@H]1N[C@@H]12` [MITOMYCIN], the AC50 in experiment [1], in experiment [2], in experiment [3], in experiment [4], in experiment [5] and in experiment [6] was above 30 µM in each case. The concentration at half-maximal activity (AC50) (in experiment [7]; on Thromboxane A2 receptor) was above 30 µM throughout.

As to `O=C(O)c1cccc(-c2noc(-c3ccccc3F)n2)c1`, the AC50 in experiment [1], in experiment [2], in experiment [3], in experiment [4], in experiment [5] and in experiment [6] was above 30 µM in each case. Moreover, the AC50 (in experiment [7]; at Thromboxane A2 receptor) was above 30 µM in each case.

For the compound `C[C@@H]1O[C@@H](OC[C@H]2O[C@@H](Oc3c(-c4ccc(OCCO)c(OCCO)c4)oc4cc(OCCO)cc(O)c4c3=O)[C@H](O)[C@@H](O)[C@@H]2O)[C@H](O)[C@H](O)[C@H]1O` [TROXERUTIN], the concentration at half-maximal activity (AC50) in experiment [1] was above 30 µM; in experiment [2], above 30 µM; in experiment [3], above 30 µM; in experiment [4], above 30 µM; in experiment [5], above 30 µM; in experiment [6] it was 22.4 µM. For the same compound, the AC50 (in experiment [7]; on Thromboxane A2 receptor) was above 30 µM throughout.

With `Oc1cccc2cccnc12` [OXYQUINOLINE], the AC50 in experiment [1], in experiment [2], in experiment [3], in experiment [4], in experiment [5] and in experiment [6] was above 30 µM throughout. Further, the AC50 (in experiment [7]; at Thromboxane A2 receptor) was above 30 µM in each case.

As for `CC(=O)O[C@]1(C(C)=O)CC[C@H]2[C@@H]3C[C@H](C)C4=CC(=O)CC[C@]4(C)[C@H]3CC[C@@]21C` [MEDROXYPROGESTERONE ACETATE], the AC50 in experiment [1] is above 30 µM; in experiment [2], 21.2 µM; in experiment [3] it was above 30 µM; in experiment [4], above 30 µM; in experiment [5], above 10 µM; in experiment [6], above 30 µM. The AC50 (in experiment [7]; on Thromboxane A2 receptor) was above 30 µM throughout.

`CCCC1C(=O)N2C(N(C)C)=Nc3ccc(C)cc3N2C1=O` (stereo unspecified) [APAZONE]: the half-maximal activity concentration (AC50) in experiment [1] is above 30 µM; in experiment [2] it was above 30 µM; in experiment [3] it was above 30 µM; in experiment [4], above 30 µM; in experiment [5], 8.41 µM; in experiment [6] it was 6.16 µM. Moreover, the AC50 (in experiment [7]; at Thromboxane A2 receptor) was above 30 µM each time.

Turning to `CCC1(c2cccc(O)c2)CCCCN(C)C1` (stereo unspecified) [MEPTAZINOL], the half-maximal activity concentration (AC50) in experiment [1] is above 30 µM; in experiment [2], 20.9 µM; in experiment [3], above 30 µM; in experiment [4], above 30 µM; in experiment [5], above 30 µM; in experiment [6] it was above 3 µM. Further, the AC50 (in experiment [7]; on Thromboxane A2 receptor) was above 30 µM throughout.

For `CC[C@@H]1/C=C(\C)C[C@H](C)C[C@H](OC)[C@H]2O[C@@](O)(C(=O)C(=O)N3CCCC[C@H]3C(=O)O[C@H](/C(C)=C/[C@@H]3CC[C@H](Cl)[C@H](OC)C3)[C@H](C)[C@@H](O)CC1=O)[C@H](C)C[C@@H]2OC` [PIMECROLIMUS], the AC50 in experiment [1] is above 30 µM; in experiment [2], above 30 µM; in experiment [3], above 3 µM; in experiment [4] it was above 30 µM; in experiment [5] it was above 30 µM; in experiment [6], above 30 µM. The half-maximal activity concentration (AC50) (in experiment [7]; at Thromboxane A2 receptor) was above 30 µM throughout.

For `CC(C(=O)O)c1ccc2c(c1)Cc1cccnc1O2` (stereo unspecified) [PRANOPROFEN], the AC50 is above 30 µM in experiment [1]; above 30 µM in experiment [2]; above 30 µM in experiment [3]; above 30 µM in experiment [4]; 0.478 µM in experiment [5]; 0.702 µM in experiment [6]. The concentration at half-maximal activity (AC50) (in experiment [7]; at Thromboxane A2 receptor) was above 30 µM each time.

For the compound `CO/N=C(\C(=O)N[C@@H]1C(=O)N2C(C(=O)OCOC(=O)C(C)(C)C)=C(C)CS[C@H]12)c1csc(N)n1`, the concentration at half-maximal activity (AC50) in experiment [1] is above 30 µM; in experiment [2] it was above 30 µM; in experiment [3], above 30 µM; in experiment [4], above 30 µM; in experiment [5], 23.2 µM; in experiment [6], above 30 µM. For the same compound, the AC50 (in experiment [7]; on Thromboxane A2 receptor) was above 30 µM each time.

Take `Cc1c(O)cccc1C(=O)N[C@@H](CSc1ccccc1)[C@H](O)CN1C[C@H]2CCCC[C@H]2C[C@H]1C(=O)NC(C)(C)C`: the AC50 in experiment [1], in experiment [2], in experiment [3], in experiment [4], in experiment [5] and in experiment [6] was above 30 µM in each case. The AC50 came to 18.2 µM in experiment [7] and 13.2 µM on Thromboxane A2 receptor.
